The supplement of paper PMC12592484

Assays:
Experiment in all cases: drug sensitivity score (DSS2, normalised partial AUC of dose-response, 72 h CellTiter-Glo viability) (DSS (dimensionless)); higher = more sensitive (stronger growth inhibition / cytotoxicity); extreme values may be limits of the assay
[1] = tested on: CAF#3 (primary prostate cancer-associated fibroblasts of myCAF-like type)
Outline: (§1)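 Cells were added to 384-well plates already holding compounds at five doses over a 10,000-fold range: low-passage primary prostate cancer-associated fibroblasts, PF179T, WPMY-1, LNCaP and 22Rv1. Viability was measured 72 h later by CellTiter-Glo 2.0 luminescence and scaled to vehicle and positive-control wells. The drug sensitivity score, computed in BREEZE, is a partial area under the fitted logistic dose–response curve divided by the log of its upper asymptote, with higher scores meaning greater sensitivity.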

[2] = tested on: WPMY-1
Outline: as §1

[3] = tested on: CAF#1 (primary prostate cancer-associated fibroblasts of myCAF-like type)
Outline: as §1

[4] = tested on: CAF#5 (primary prostate cancer-associated fibroblasts of myCAF-like type)
Outline: as §1

[5] = tested on: CAF#2 (primary prostate cancer-associated fibroblasts of iCAF-like type)
Outline: as §1

[6] = tested on: CAF#6 (primary prostate cancer-associated fibroblasts of iCAF-like type)
Outline: as §1

[7] = tested on: LNCAP
Outline: as §1

[8] = tested on: 22Rv1
Outline: as §1

[9] = tested on: CAF#7 (primary prostate cancer-associated fibroblasts of myCAF-like type)
Outline: as §1

[10] = tested on: PF179T
Outline: as §1

[11] = tested on: CAF#4 (primary prostate cancer-associated fibroblasts of iCAF-like type)
Outline: as §1

Row | Compound | drug sensitivity score [1] | drug sensitivity score [2] | drug sensitivity score [3] | drug sensitivity score [4] | drug sensitivity score [5] | drug sensitivity score [6] | drug sensitivity score [7] | drug sensitivity score [8] | drug sensitivity score [9] | drug sensitivity score [10] | drug sensitivity score [11]
1 | O=C(O)c1ccc(O)c2ncccc12 [IOX-1] (tested concentration range 10-100000 nM) | 0.3 | 0.8 | 0.1 | 0.8 | 1.7 | 0.8 | 6.9 | 0.9 | 0.4 | 3.9 | 2.6
2 | CC[C@@](C)(Nc1ccnc(-c2c[nH]c3ncccc23)n1)C(=O)NCC(F)(F)F [Decernotinib] (tested concentration range 1-10000 nM) | 0.5 | 0.7 | 0.2 | 0 | 0.1 | 0 | 0 | 0 | 0 | 0 | 0
3 | O=C1CN2Cc3c(ccc(Cl)c3Cl)N=C2N1 [Anagrelide] (tested concentration range 1-10000 nM) | 7.2 | 0 | 8.4 | 0.6 | 0.6 | 0 | 0 | 0 | 8.8 | 0 | 0
4 | O=C(Nc1nc2cccc(-c3ccc(CN4CCS(=O)(=O)CC4)cc3)n2n1)C1CC1 [Filgotinib] (tested concentration range 1-10000 nM) | 1.7 | 2.1 | 2.1 | 1.9 | 2.3 | 0.1 | 3.8 | 2.5 | 0.6 | 0.9 | 0
5 | C[C@H]1C[C@@H](n2c(Nc3ccc(OC(F)(F)F)cc3)nc3cc(CCC(=O)O)ccc32)CC(C)(C)C1 (tested concentration range 1-10000 nM) | 0 | 0 | 0 | 0 | 0 | 0 | 0.4 | 0 | 0 | 0 | 0
6 | CC(O)c1cc(C(=O)N[C@@H](C)Cn2ccc(-c3ccc(C#N)c(Cl)c3)n2)n[nH]1 (stereo partly specified) [Darolutamide] (tested concentration range 0.2-2500 nM) | 0.1 | 0 | 3.1 | 2.9 | 2.2 | 0 | 0.1 | 0.6 | 0 | 0 | 4.4
7 | C[C@]1(c2nc3c(C(N)=O)cccc3[nH]2)CCCN1 [Veliparib] (tested concentration range 1-10000 nM) | 2.6 | 0.8 | 1.2 | 0 | 1.5 | 1.7 | 0.7 | 1.4 | 1.2 | 0.5 | 0
8 | Cc1ccc(Nc2nccc(N(C)c3ccc4c(C)n(C)nc4c3)n2)cc1S(N)(=O)=O [Pazopanib] (tested concentration range 1-10000 nM) | 4 | 0.2 | 3.6 | 3.7 | 6.7 | 1.1 | 4.1 | 0 | 5.1 | 5 | 5.4
9 | COc1cc2ncnc(Nc3ccc(F)c(Cl)c3)c2cc1OCCCN1CCOCC1 [Gefitinib] (tested concentration range 1-10000 nM) | 0.2 | 2.1 | 0 | 0.5 | 2 | 0.2 | 2.6 | 3.9 | 0.2 | 1.7 | 2.8
10 | O=C(c1ccc(OCCN2CCCCC2)cc1)c1c(-c2ccc(O)cc2)sc2cc(O)ccc12 [Raloxifene] (tested concentration range 1-10000 nM) | 2.4 | 5.8 | 0 | 0.2 | 0.7 | 0.4 | 2.9 | 2.9 | 0.5 | 0.8 | 0.5
11 | CN(C)CC#Cc1ccc(OCCCc2sc(N3CCc4cccc(C(=O)Nc5nc6ccccc6s5)c4C3)nc2C(=O)O)c(F)c1 (tested concentration range 1-10000 nM) | 0.2 | 1.4 | 2.7 | 3.2 | 2.3 | 5.6 | 6.1 | 0 | 4.1 | 0 | 14.4
12 | CN1CCc2c(c3ccccc3n2Cc2ccc(C(=O)NO)cc2)C1 [Tubastatin A] (tested concentration range 1-10000 nM) | 0.6 | 5.9 | 0 | 0 | 0.2 | 0 | 1.4 | 2.3 | 0 | 0 | 2.8
13 | CN(C)C[C@@H]1CCn2cc(c3ccccc32)C2=C(C(=O)NC2=O)c2cn(c3ccccc23)CCO1 [Ruboxistaurin] (tested concentration range 1-10000 nM) | 8.9 | 8.4 | 8.4 | 6.8 | 6.6 | 6.8 | 8.2 | 9.6 | 5.9 | 8.4 | 8.4
14 | CC(C)(C)c1nc(-c2cccc(NS(=O)(=O)c3c(F)cccc3F)c2F)c(-c2ccnc(N)n2)s1 [Dabrafenib] (tested concentration range 0.2-2500 nM) | 4.5 | 0 | 1.4 | 3.5 | 0.2 | 2.6 | 4.8 | 5.6 | 4.1 | 2.1 | 0
15 | COc1cccc(OCCCN)c1-c1cc(Nc2cnc(C#N)cn2)n[nH]1 [Prexasertib] (tested concentration range 1-10000 nM) | 4.9 | 29.7 | 8.6 | 9.1 | 16.6 | 6.8 | 24.3 | 24.4 | 5.4 | 14.5 | 8.7
16 | COc1cc2c(cc1OCCCN1CCCC1)N=C(N)C21CCC1 [A-366] (tested concentration range 2.5-25000 nM) | 0.7 | 4.5 | 0 | 0 | 0 | 1.5 | 5.6 | 6.7 | 0 | 0.1 | 0
17 | CC[C@H](C)C(=O)O[C@H]1C[C@@H](C)C=C2C=C[C@H](C)[C@H](CC[C@@H]3C[C@@H](O)CC(=O)O3)[C@H]21 [Lovastatin] (tested concentration range 1-10000 nM) | 0.3 | 1.1 | 2.8 | 3.7 | 5.5 | 2.6 | 0 | 1 | 3 | 3.3 | 3.4
18 | CCN(CC)Cc1ccc2cc(COC(=O)Nc3ccc(C(=O)NO)cc3)ccc2c1 [Givinostat] (tested concentration range 0.1-1000 nM) | 1.8 | 11.4 | 2.4 | 4.9 | 4.2 | 3.6 | 9.3 | 9.8 | 3.1 | 3.9 | 2.3
19 | O=C(c1ccc(F)c(F)c1Nc1ccc(I)cc1F)N1CC(O)([C@@H]2CCCCN2)C1 [Cobimetinib] (tested concentration range 0.1-1000 nM) | 0 | 4.2 | 0.5 | 1.9 | 3.9 | 3.3 | 0 | 9.6 | 5.3 | 2.1 | 1.6
20 | Cn1cnc2c(F)c(Nc3ccc(Br)cc3Cl)c(C(=O)NOCCO)cc21 [Selumetinib] (tested concentration range 1-10000 nM) | 0 | 4.3 | 1.2 | 1.6 | 4.5 | 1.1 | 0 | 14.4 | 2.6 | 2.5 | 2.5
21 | COc1cc(NS(C)(=O)=O)ccc1Nc1c2ccccc2nc2ccccc12 [Amsacrine] (tested concentration range 1-10000 nM) | 3.1 | 11.1 | 3.2 | 2.2 | 6.7 | 3.8 | 17 | 10.1 | 7.1 | 7.7 | 2.4
22 | Nc1nc(Cl)nc2c1ncn2[C@H]1C[C@H](O)[C@@H](CO)O1 [Cladribine] (tested concentration range 0.1-1000 nM) | 0.5 | 5.1 | 0 | 0.1 | 2.7 | 0 | 5.2 | 1.7 | 0.6 | 3.9 | 0
23 | CC[C@]12C=CCN3CC[C@@]4(c5cc([C@@]6(C(=O)OC)C[C@@H]7C[C@@H](C(C)(F)F)CN(Cc8c6[nH]c6ccccc86)C7)c(OC)cc5N(C)[C@H]4[C@@](O)(C(=O)OC)[C@@H]1OC(C)=O)[C@@H]32 [Vinflunine] (tested concentration range 0.1-1000 nM) | 2 | 5.5 | 0.9 | 1.1 | 0.9 | 2.4 | 4.3 | 4.8 | 4.4 | 3.8 | 0.1
24 | CCOCc1nc2c(N)nc3ccccc3c2n1CC(C)(C)O [Resiquimod] (tested concentration range 1-10000 nM) | 0 | 0 | 0 | 0 | 0.4 | 0 | 0 | 0 | 0 | 0 | 0
25 | COC(=O)c1ccc2c(c1)[nH]c1ncnc(NCCCN3CCCCC3)c12 [UM729] (tested concentration range 1-10000 nM) | 0.3 | 3.9 | 0 | 1.6 | 0 | 0 | 3.3 | 3.6 | 0.2 | 0.1 | 0
26 | C[C@@H](Nc1cc(F)cc(F)c1)c1cc(C(=O)N(C)C)cc2c(=O)cc(N3CCOCC3)oc12 [AZD-8186] (tested concentration range 0.1-1000 nM) | 4.2 | 1 | 2.9 | 2.8 | 3.4 | 2.2 | 12.7 | 1 | 3.9 | 6.3 | 2.8
